Test systems include A498; ACHN; HCT-15; HL-60; HOP-62; HT-29; MDA-MB-435; NCI-H522; NCI/ADR-RES; OVCAR-5; RPMI-8226; SF-539; SK-MEL-2; SK-MEL-5; SN12C; TK-10; U-251; UACC-257; UACC-62; UO-31.
What all share (assay): inhibition of tumour cell growth, NCI panel, 48 h

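Five concentrations, 48 hours, 96-well plates. GI50 marks 50% less growth.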 Active and inactive are the calls of the source. Rule as the data show it: active = GI50 up to about 1.1 µM and inactive = higher.

As to `COC(=O)[C@@H]1C=C[C@H](OC2OC(COC(C)=O)C(OC(C)=O)C(OC(C)=O)C2OC(C)=O)n2c(=O)n(-c3ccccc3)c(=O)n21` (stereo not given in full), the GI50 with A498 is 7.46 µM (inactive); in the test on ACHN, 1.72 µM (inactive); in the test with HCT-15 it was 1.84 µM; in the test on HL-60, 1.1 µM (active); with HOP-62, 14.5 µM (inactive); with HT-29, 1.88 µM (inactive). Further, the GI50 in the test on MDA-MB-435 is 5.14 µM (inactive); in the test with NCI-H522, 0.507 µM (active); in the test on NCI/ADR-RES it was 6.92 µM (inactive); in the test on OVCAR-5, 6.27 µM (inactive); in the test on RPMI-8226, 1.47 µM (inactive); in the test with SF-539, 2.74 µM (inactive). In addition, the GI50 with SK-MEL-2 is 2.25 µM (inactive); with SK-MEL-5, 2.56 µM (inactive); in the test with SN12C, 2.69 µM (inactive); in the test on TK-10, 1.79 µM (inactive); in the test on U-251, 2.8 µM (inactive); in the test on UACC-257, 2.13 µM (inactive). Moreover, the results for the GI50 in the test with UACC-62 and in the test on UO-31 were 3.1 µM (inactive) and 2.24 µM (inactive), respectively.

Regarding `Cn1cnc([N+](=O)[O-])c1[Se]c1nc(N)nc2c1ncn2C1OC(CO)C(O)C1O` (stereo not given), the GI50 was > 100 µM (inactive) in the test with A498; > 100 µM (inactive) with ACHN; above 100 µM with HCT-15; > 100 µM (inactive) with HL-60; > 100 µM (inactive) in the test with HOP-62; > 100 µM (inactive) in the test on HT-29. Further, the GI50 with MDA-MB-435, in the test with NCI-H522, in the test on NCI/ADR-RES, in the test with OVCAR-5, in the test on RPMI-8226 and in the test with SF-539 was > 100 µM (inactive) in each case. The GI50 in the test on SK-MEL-2, with SK-MEL-5, with SN12C, in the test with TK-10, in the test on U-251 and in the test with UACC-257 was > 100 µM (inactive) in each case. Besides, the GI50 in the test with UACC-62 and in the test with UO-31 was > 100 µM (inactive) each time.

Turning to `Cn1ncc2c(Cl)ncnc21`, the GI50 in the test with A498 is > 100 µM (inactive); with ACHN, > 100 µM (inactive); in the test with HCT-15, above 100 µM; in the test on HL-60, > 100 µM (inactive); in the test with HOP-62, > 100 µM (inactive); with HT-29, > 100 µM (inactive). Besides, the GI50 with MDA-MB-435, in the test on NCI-H522, with NCI/ADR-RES, in the test with OVCAR-5, in the test on RPMI-8226 and with SF-539 was > 100 µM (inactive) throughout. For the same molecule, the GI50 in the test with SK-MEL-2, with SK-MEL-5, in the test with SN12C, in the test on TK-10, with U-251 and with UACC-257 was > 100 µM (inactive) in each case. In addition, the GI50 in the test with UACC-62 and with UO-31 was > 100 µM (inactive) in each case.

`CN(Cc1cnc2nc(N)nc(N)c2n1)c1ccc(C(=O)NCCS(=O)(=O)O)cc1`: the GI50 was > 100 µM (inactive) with A498; > 100 µM (inactive) in the test on ACHN; above 100 µM in the test with HCT-15; > 100 µM (inactive) in the test on HL-60; > 100 µM (inactive) with HOP-62; > 100 µM (inactive) in the test with HT-29. The GI50 with MDA-MB-435, with NCI-H522, in the test on NCI/ADR-RES, with OVCAR-5, in the test with RPMI-8226 and in the test on SF-539 was > 100 µM (inactive) each time. For the same molecule, the GI50 in the test on SK-MEL-2, in the test with SK-MEL-5, in the test on SN12C, in the test on TK-10, in the test with U-251 and with UACC-257 was > 100 µM (inactive) in each case. Besides, the GI50 with UACC-62 and in the test with UO-31 was > 100 µM (inactive) in each case.

`NNC(=O)CC(=O)Nc1ccccc1Cl`: the GI50 with A498 is > 100 µM (inactive); in the test with ACHN it was > 100 µM (inactive); with HCT-15, above 100 µM; in the test on HL-60, > 100 µM (inactive); in the test with HOP-62, > 100 µM (inactive); in the test on HT-29 it was > 100 µM (inactive). In addition, the GI50 in the test on MDA-MB-435, with NCI-H522, in the test with NCI/ADR-RES, with OVCAR-5, with RPMI-8226 and in the test with SF-539 was > 100 µM (inactive) throughout. Moreover, the GI50 in the test with SK-MEL-2, in the test on SK-MEL-5, with SN12C, in the test on TK-10, with U-251 and in the test on UACC-257 was > 100 µM (inactive) in each case. Further, the GI50 in the test with UACC-62 and with UO-31 was > 100 µM (inactive) each time.

For `C=CC[C@@]1(OC(C)=O)C(=O)C(=O)OC1C1COC(C)(C)O1` (stereo not given in full), the GI50 is 21.9 µM (inactive) with A498; 16.6 µM (inactive) in the test on ACHN; 15 µM in the test on HCT-15; 10.8 µM (inactive) in the test on HL-60; 49.4 µM (inactive) in the test with HOP-62; 19.3 µM (inactive) in the test on HT-29. For the same molecule, the GI50 is 16.8 µM (inactive) with MDA-MB-435; 6.12 µM (inactive) in the test with NCI-H522; 25.3 µM (inactive) in the test with NCI/ADR-RES; 19.8 µM (inactive) in the test on OVCAR-5; 12.4 µM (inactive) with RPMI-8226; 25.1 µM (inactive) with SF-539. In addition, the GI50 in the test with SK-MEL-2 was 21.6 µM (inactive); with SK-MEL-5, 16.6 µM (inactive); in the test on SN12C it was 17.6 µM (inactive); with TK-10 it was 16.3 µM (inactive); with U-251, 16.9 µM (inactive); with UACC-257, 16.3 µM (inactive). Also, the GI50 with UACC-62 is 16.5 µM (inactive); with UO-31, 17.6 µM (inactive).

As for `COc1ccc(SCc2cc(OC)c(OC)c(OC)c2)cc1OC`, the GI50 in the test on A498 was 40.9 µM (inactive); in the test on ACHN it was 51.8 µM (inactive); in the test with HCT-15, 34 µM; in the test with HL-60, 30.8 µM (inactive); in the test with HOP-62 it was > 100 µM (inactive); in the test on HT-29, 67.6 µM (inactive). Also, the GI50 with MDA-MB-435 was 11.2 µM (inactive); in the test on NCI-H522 it was 53.6 µM (inactive); in the test on NCI/ADR-RES, 32.4 µM (inactive); with OVCAR-5 it was > 94.6 µM (inactive); in the test on RPMI-8226 it was 33.3 µM (inactive); in the test on SF-539, > 80.2 µM (inactive). In addition, the GI50 is 23 µM (inactive) in the test on SK-MEL-2; 15.8 µM (inactive) in the test on SK-MEL-5; > 100 µM (inactive) in the test with SN12C; > 91.4 µM (inactive) in the test on TK-10; 53.8 µM (inactive) in the test on U-251; 45.6 µM (inactive) in the test with UACC-257. Besides, the GI50 is 38 µM (inactive) with UACC-62 and 27.9 µM (inactive) in the test with UO-31.

The values above are taken from ChEMBL document CHEMBL1201862, “PubChem BioAssay data set” (2004).
